According to patent US6881740B1, “Pharmaceutical agents” (Monash University, priority 1998, dated 2005):

Assays:
[1] = molecular target: NMDA/polyamine sites (polyamine-sensitive [3H]-ifenprodil binding, rat cerebral cortex membranes) (Rattus norvegicus, UniProt P35439+Q00960); experiment: NMDA/polyamine site [3H]-ifenprodil binding assay; conditions: [3H]-ifenprodil 4 nM, rat cerebral cortex homogenate
Excerpt: Ifenprodil and eliprodil have been reported as antiischaemic agents (Gotti et al., 1988) and both compounds have been reported to associate with the polyamine sensitive site of the NMDA receptor complex (Carter et al., 1989 and 1990; Reynolds et al., 1989; and Robinson et al., 1990). […] These agents bind independently of the NMDA ion channel (Carter et al., 1991; Reynolds et al., 1989), appear not to cause behavioural effects (Carter et al., 1991), and may target specific heteromeric NMDA receptors (Williams, 1993; Nicola et al., 1994) uniquely distributed in forebrain regions (Standaert et al., 1994) affected in ischaemia and head trauma. […] Accordingly, compounds of the present invention are capable of binding to the NMDA receptor complex and providing a neuroprotective effect, or otherwise providing benefit in other conditions related to NMDA receptors.
Briefly, crude membrane suspensions containing 10% rat cerebral cortex were prepared in aqueous 50 mM Tris-HCl buffer (pH 7.4, 4° C.), using a Polytron homogeniser.
Nonspecific binding was determined using spermine (10 μM).
The sigma receptor ligand 3PPP(+)-3-(3-hydroxyphenyl)-N-propyl-piperidine (100 μM) was included in all tubes to block binding to sigma receptors. […] Filterpapers were collected, combined with scintillant and bound radioactivity determined using a Packard Scintillation counter.

[2] = system: cultured cerebellar granule cells; experiment: Veratridine induced toxicity in neuronal cultures (MTT assay); conditions: Mus musculus
[3] = system: murine neocortical neurones; experiment: NMDA-induced toxicity in neuronal cultures (MTT assay); type: cell-based; conditions: Mus musculus, NMDA 600 μM, 1 h, compound added 30 min prior, cultures at 8 days in vitro, read-out: EC50 for inhibition of NMDA-induced toxicity
Procedure: Assay for NMDA-induced Toxicity in Neuronal Cultures
Neuronal cell death was assessed using a 3-(4,5-dimethylthiazol-2-yl)-2,5-diphenyltetrazoliurn bromide (MTT) assay in which NMDA-induced cellular changes are reflected as altered mitochondrial activity (Ankarcrona et al., 1995), as estimated by the formation of a formazan dye, which is measured spectrophotometrically. The procedure employed is essentially that of Roehlm et al. (1991) with minor modifications as previously described elsewhere in work from our laboratories Larm et al. (1996).
Primary cultures of murine neocortical neurones were established as described elsewhere (Larm et al., 1996). The effects of experimental compounds were tested in the cultures at 8 days in vitro. Exposure to NMDA (600 μM, 1 h) and other compounds was performed in an humidified incubator (5% CO2, 8% O2) at 37° C. in anti-oxidant free medium with compounds under evaluation being added 30 min prior to NMDA. For these conditions the culture medium was modified by omitting the following components: D,L- -tocopherol, D,L- -tocopherol acetate, catalase, superoxide dismutase and L-glutamine. Other details are described in Larm et al. (1996). Absorbence was read at 570 nm using a Ceres UV900 microplate reader. Control cultures were included in each experiment containing either vehicle alone or vehicle plus compound. […]

Sequence of NMDA/polyamine sites (polyamine-sensitive [3H]-ifenprodil binding, rat cerebral cortex membranes) (Q00960 27-1482, other chains not shown): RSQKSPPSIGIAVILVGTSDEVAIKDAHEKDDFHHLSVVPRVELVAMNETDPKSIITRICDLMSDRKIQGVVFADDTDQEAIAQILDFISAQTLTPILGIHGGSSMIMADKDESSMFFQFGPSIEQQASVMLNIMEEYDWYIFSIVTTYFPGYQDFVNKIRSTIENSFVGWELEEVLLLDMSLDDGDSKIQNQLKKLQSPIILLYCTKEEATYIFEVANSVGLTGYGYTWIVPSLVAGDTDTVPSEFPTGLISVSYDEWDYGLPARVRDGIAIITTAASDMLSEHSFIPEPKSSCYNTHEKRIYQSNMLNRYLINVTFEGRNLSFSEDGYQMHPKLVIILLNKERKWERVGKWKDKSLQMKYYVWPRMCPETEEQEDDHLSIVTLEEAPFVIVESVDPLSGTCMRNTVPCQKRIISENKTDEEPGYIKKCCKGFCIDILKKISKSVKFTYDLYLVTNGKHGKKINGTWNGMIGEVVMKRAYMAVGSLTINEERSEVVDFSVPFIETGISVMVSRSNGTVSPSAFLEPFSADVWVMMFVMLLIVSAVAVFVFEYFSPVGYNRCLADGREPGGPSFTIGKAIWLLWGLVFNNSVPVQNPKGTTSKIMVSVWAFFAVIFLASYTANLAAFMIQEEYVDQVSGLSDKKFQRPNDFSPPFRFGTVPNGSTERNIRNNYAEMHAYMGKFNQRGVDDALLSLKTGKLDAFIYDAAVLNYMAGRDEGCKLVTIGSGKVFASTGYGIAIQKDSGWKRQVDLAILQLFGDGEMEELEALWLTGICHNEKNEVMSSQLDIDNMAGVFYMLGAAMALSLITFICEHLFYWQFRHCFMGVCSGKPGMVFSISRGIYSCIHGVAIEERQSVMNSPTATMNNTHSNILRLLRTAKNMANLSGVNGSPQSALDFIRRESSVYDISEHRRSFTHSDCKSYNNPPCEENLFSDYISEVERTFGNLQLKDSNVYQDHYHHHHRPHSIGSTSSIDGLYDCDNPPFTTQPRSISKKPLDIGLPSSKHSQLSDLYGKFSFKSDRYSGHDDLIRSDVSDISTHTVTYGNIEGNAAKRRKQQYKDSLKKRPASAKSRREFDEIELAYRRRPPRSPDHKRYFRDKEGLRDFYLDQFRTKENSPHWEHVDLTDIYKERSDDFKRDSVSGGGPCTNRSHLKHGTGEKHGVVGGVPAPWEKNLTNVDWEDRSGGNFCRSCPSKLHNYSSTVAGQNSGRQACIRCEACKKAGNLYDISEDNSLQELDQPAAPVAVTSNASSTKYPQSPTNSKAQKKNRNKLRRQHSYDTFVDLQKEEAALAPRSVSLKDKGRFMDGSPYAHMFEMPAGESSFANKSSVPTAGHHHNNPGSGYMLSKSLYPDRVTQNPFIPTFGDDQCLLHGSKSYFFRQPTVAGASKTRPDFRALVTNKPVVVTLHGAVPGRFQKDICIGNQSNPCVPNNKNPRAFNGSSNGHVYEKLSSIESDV

- IC50 ([1]; 2 h at 4° C., 3PPP 100 μM to block sigma sites): 4.33 ± 1.56 µM
- Ki ([1]; competition curves analysed with Radlig): 1.4 ± 0.047 µM
Compound: OC(Cc1cc(N2CCCC2)nc(N2CCCC2)n1)c1cccc(OC(F)(F)F)c1 (stereo not shown) [Compound 17, 6-[2-hydroxy-2-(3-trifluoromethoxyphenyl)ethyl]-2,4-di-N-pyrrolidinylpyrimidine]
- EC50 [2]: 1.7 µM
- EC50 [3]: 1.7 µM
